In PubChem BioAssay AID1259407 (Chemical Carcinogenesis Research Information System (CCRIS), 2018) one finds mutagenic call data, which are given here for five compounds.

The source made the active and inactive calls. The rule behind the calls is not given here.

In the series the test system is CCRIS mutagenicity, Ames/micronucleus/aberration tests. Briefly: CCRIS mutagenicity studies.
The mark [1] stands for this setting: Test System: AMES SALMONELLA TYPHIMURIUM, Strain/Indicator: TA98, Metabolic Activation: NONE, Method: PREINCUBATION
The mark [2] stands for this setting: Test System: AMES SALMONELLA TYPHIMURIUM, Strain/Indicator: TA100, Metabolic Activation: NONE, Method: PREINCUBATION
Where [3] appears, read: Test System: AMES SALMONELLA TYPHIMURIUM, Strain/Indicator: TA98, Metabolic Activation: NONE, Method: STANDARD PLATE.
Where [4] appears, read: Test System: AMES SALMONELLA TYPHIMURIUM, Strain/Indicator: TA98, Metabolic Activation: RAT, LIVER, S-9, AROCLOR 1254, Method: STANDARD PLATE.
The mark [5] stands for this setting: Test System: AMES SALMONELLA TYPHIMURIUM, Strain/Indicator: TA1538, Metabolic Activation: NONE, Method: STANDARD PLATE.

Take `Nc1nc(-c2cccc([N+](=O)[O-])c2)nc2c1ncn2[C@@H]1O[C@H](CO)[C@@H](O)[C@H]1O`: the mutagenic call under setting [1] is “inactive; negative”; the mutagenic call (Test System: AMES SALMONELLA TYPHIMURIUM, Strain/Indicator: TA98, Metabolic Activation: RAT, LIVER, S-9, PCB, Method: PREINCUBATION) was “inactive; negative”; the mutagenic call under setting [2] is “active; positive”; the mutagenic call (Test System: AMES SALMONELLA TYPHIMURIUM, Strain/Indicator: TA100, Metabolic Activation: RAT, LIVER, S-9, PCB, Method: PREINCUBATION) is “active; positive”.

As to `COc1ccc(/C(=C/C(=O)N2CCOCC2)c2ccc(F)cc2)cc1OC`, the mutagenic call (End Point: IN VITRO CHROMOSOMAL ABERRATIONS, Test System: CHINESE HAMSTER LUNG (CHL) CELLS, Metabolic Activation: NONE) was “inactive; negative” and the mutagenic call (End Point: IN VITRO CHROMOSOMAL ABERRATIONS, Test System: CHINESE HAMSTER LUNG (CHL) CELLS, Metabolic Activation: S-9) is “active; positive (structural changes)”.

With `CC(=O)ON(C(C)=O)c1ccc2c(c1)Cc1ccccc1-2`, the mutagenic call under setting [3] is “active; positive”; the mutagenic call under setting [4] is “active; positive”; the mutagenic call under setting [5] is “active; positive”; the mutagenic call (Test System: AMES SALMONELLA TYPHIMURIUM, Strain/Indicator: TA1538, Metabolic Activation: RAT, LIVER, S-9, KC500 OR PHENOBARBITAL, Method: LIQUID SUSPENSION) is “active; positive”; the mutagenic call (Test System: CHINESE HAMSTER V-79, Strain/Indicator: V-79/6-THIOGUANINE, Metabolic Activation: NONE) was “active; positive”; the mutagenic call (Test System: CHINESE HAMSTER V-79, Strain/Indicator: V-79/8-AZAGUANINE, Metabolic Activation: NONE, Method: STANDARD PLATE) is “active; positive”. Moreover, the mutagenic call reads like this: (Test System: UDS HUMAN CELLS, Strain/Indicator: THY INCORP (NON-S-PHASE), Metabolic Activation: NONE, Method: LIQUID SCINTILLATION COUNTING) “active; positive”; (Test System: UDS HUMAN FIBROBLASTS, Strain/Indicator: THY INCORP (NON-S-PHASE), Metabolic Activation: NONE, Method: AUTORADIOGRAPHY) “active; positive”; (Test System: UDS HUMAN FIBROBLASTS, Strain/Indicator: THY INCORP (NON-S-PHASE), Metabolic Activation: NONE, Method: LIQUID SCINTILLATION COUNTING) “active; positive”; (Test System: UDS HUMAN LYMPHOCYTES, Strain/Indicator: THY INCORP (NON-S-PHASE), Metabolic Activation: NONE, Method: LIQUID SCINTILLATION COUNTING) “active; positive”; (Test System: UDS RODENT CELLS, Strain/Indicator: THY INCORP (NON-S-PHASE), Metabolic Activation: NONE, Method: AUTORADIOGRAPHY) “active; positive”; (Test System: UDS RODENT CELLS, Strain/Indicator: THY INCORP (NON-S-PHASE), Metabolic Activation: NONE, Method: LIQUID SCINTILLATION COUNTING) “active; positive”. For the same compound, the mutagenic call is “active; positive” (Test System: UDS RODENT HEPATOCYTES, Strain/Indicator: THY INCORP (NON-S-PHASE), Method: LIQUID SCINTILLATION COUNTING) and “active; positive” (Test System: UDS RODENT PRIMARY CELLS, Strain/Indicator: THY INCORP (NON-S-PHASE), Metabolic Activation: NONE, Method: AUTORADIOGRAPHY).

With `CCCCCCCCCCCCCC(=O)O`, the mutagenic call reads like this: (Test System: AMES SALMONELLA TYPHIMURIUM, Strain/Indicator: TA97, Metabolic Activation: HAMSTER, LIVER, S-9, AROCLOR 1254 (10 OR 30%), Method: PREINCUBATION) “inactive; negative”; (Test System: AMES SALMONELLA TYPHIMURIUM, Strain/Indicator: TA97, Metabolic Activation: NONE, Method: PREINCUBATION) “inactive; negative”; (Test System: AMES SALMONELLA TYPHIMURIUM, Strain/Indicator: TA97, Metabolic Activation: RAT, LIVER, S-9, AROCLOR 1254 (10%), Method: PREINCUBATION) “inactive; negative”; (Test System: AMES SALMONELLA TYPHIMURIUM, Strain/Indicator: TA97, Metabolic Activation: RAT, LIVER, S-9, AROCLOR 1254 (30%), Method: PREINCUBATION) “inactive; negative”; (Test System: AMES SALMONELLA TYPHIMURIUM, Strain/Indicator: TA98, Metabolic Activation: HAMSTER, LIVER, S-9, AROCLOR 1254 (10 OR 30%), Method: PREINCUBATION) “inactive; negative”; under setting [1], “inactive; negative”. The mutagenic call is “inactive; negative” (Test System: AMES SALMONELLA TYPHIMURIUM, Strain/Indicator: TA98, Metabolic Activation: RAT LIVER S-9, PHENOBARBITAL AND BETA-NAPHTHOFLAVONE, Method: PREINCUBATION); “inactive; negative” (Test System: AMES SALMONELLA TYPHIMURIUM, Strain/Indicator: TA98, Metabolic Activation: RAT, LIVER, S-9, AROCLOR 1254 (10 OR 30%), Method: PREINCUBATION); “inactive; negative” (Test System: AMES SALMONELLA TYPHIMURIUM, Strain/Indicator: TA100, Metabolic Activation: HAMSTER, LIVER, S-9, AROCLOR 1254 (10%), Method: PREINCUBATION); “inactive; negative” (Test System: AMES SALMONELLA TYPHIMURIUM, Strain/Indicator: TA100, Metabolic Activation: HAMSTER, LIVER, S-9, AROCLOR 1254 (30%), Method: PREINCUBATION); “inactive; negative” under setting [2]; “inactive; negative” (Test System: AMES SALMONELLA TYPHIMURIUM, Strain/Indicator: TA100, Metabolic Activation: RAT LIVER S-9, PHENOBARBITAL AND BETA-NAPHTHOFLAVONE, Method: PREINCUBATION). The mutagenic call (Test System: AMES SALMONELLA TYPHIMURIUM, Strain/Indicator: TA100, Metabolic Activation: RAT, LIVER, S-9, AROCLOR 1254 (10%), Method: PREINCUBATION) is “inactive; negative”; the mutagenic call (Test System: AMES SALMONELLA TYPHIMURIUM, Strain/Indicator: TA100, Metabolic Activation: RAT, LIVER, S-9, AROCLOR 1254 (30%), Method: PREINCUBATION) is “inactive; negative”; the mutagenic call (Test System: AMES SALMONELLA TYPHIMURIUM, Strain/Indicator: TA1535, Metabolic Activation: HAMSTER, LIVER, S-9, AROCLOR 1254 (10 OR 30%), Method: PREINCUBATION) was “inactive; negative”; the mutagenic call (Test System: AMES SALMONELLA TYPHIMURIUM, Strain/Indicator: TA1535, Metabolic Activation: NONE, Method: PREINCUBATION) was “inactive; negative”; the mutagenic call (Test System: AMES SALMONELLA TYPHIMURIUM, Strain/Indicator: TA1535, Metabolic Activation: RAT, LIVER, S-9, AROCLOR 1254 (10 OR 30%), Method: PREINCUBATION) was “inactive; negative”; the mutagenic call (Test System: AMES SALMONELLA TYPHIMURIUM, Strain/Indicator: TA1537, Metabolic Activation: HAMSTER, LIVER, S-9, AROCLOR 1254 (10 OR 30%), Method: PREINCUBATION) was “inactive; negative”. Moreover, the mutagenic call reads like this: (Test System: AMES SALMONELLA TYPHIMURIUM, Strain/Indicator: TA1537, Metabolic Activation: NONE, Method: PREINCUBATION) “inactive; negative”; (Test System: AMES SALMONELLA TYPHIMURIUM, Strain/Indicator: TA1537, Metabolic Activation: RAT LIVER S-9, PHENOBARBITAL AND BETA-NAPHTHOFLAVONE, Method: PREINCUBATION) “inactive; negative”; (Test System: AMES SALMONELLA TYPHIMURIUM, Strain/Indicator: TA1537, Metabolic Activation: RAT, LIVER, S-9, AROCLOR 1254 (10 OR 30%), Method: PREINCUBATION) “inactive; negative”; (Test System: E.COLI, Strain/Indicator: WP2UVRA/PKM101, Metabolic Activation: NONE, Method: PREINCUBATION) “inactive; negative”; (Test System: E.COLI, Strain/Indicator: WP2UVRA/PKM101, Metabolic Activation: RAT LIVER S-9, PHENOBARBITAL AND BETA-NAPHTHOFLAVONE, Method: PREINCUBATION) “inactive; negative”.

With `O=C1c2ccc(O)cc2C(=O)c2ccc(O)cc21`, the mutagenic call is “inactive; negative” under setting [3]; “inactive; negative” under setting [4]; “inactive; negative” (Test System: AMES SALMONELLA TYPHIMURIUM, Strain/Indicator: TA100, Metabolic Activation: NONE, Method: STANDARD PLATE); “inactive; negative” (Test System: AMES SALMONELLA TYPHIMURIUM, Strain/Indicator: TA100, Metabolic Activation: RAT, LIVER, S-9, AROCLOR 1254, Method: STANDARD PLATE); “inactive; negative” (Test System: AMES SALMONELLA TYPHIMURIUM, Strain/Indicator: TA1535, Metabolic Activation: NONE, Method: STANDARD PLATE); “inactive; negative” (Test System: AMES SALMONELLA TYPHIMURIUM, Strain/Indicator: TA1535, Metabolic Activation: RAT, LIVER, S-9, AROCLOR 1254, Method: STANDARD PLATE). The mutagenic call under setting [5] was “inactive; negative” and the mutagenic call (Test System: AMES SALMONELLA TYPHIMURIUM, Strain/Indicator: TA1538, Metabolic Activation: RAT, LIVER, S-9, AROCLOR 1254, Method: STANDARD PLATE) was “inactive; negative”.
